{"source": "patent US20130237496A1", "about": "“ACTIVE INGREDIENT OBTAINED FROM CICHORIUM INTYBUS FOR ACTING ON THE BARRIER FUNCTION OF THE SKIN THAT IS SIMILAR TO THAT OF VITAMIN D” (SOCIETE INDUSTRIELLE LIMOUSINE D'APPLICATION BIOLOGIQUE, priority 2012, published 2013)", "assay_type_in_all_cases": "cell-based", "key": {"[1]": {"system": "Aged reconstructed epidermis", "assay": "Thickness of reconstructed epidermis from aged human keratinocytes (HE coloring)", "description": "(§1) The object of this study is to evaluate the capacity of a Cichorium intybus root hydrolyzate comprising oligofructosans to promote the construction of a stratified and functional epidermis starting from aged human keratinocytes obtained by successive replications. First, the young human keratinocytes (passage 1: […] Next, the reconstructed epidermis (RE) is obtained after the young or aged human keratinocytes are cultivated. On D12 and D19, the RE are recovered, fixed, dehydrated and included in paraffin. Sections (4 μm) are then made using a microtome. Next, an HE coloring, and then an immunohistological marking of the filaggrin, terminal differentiation marker, are carried out. The display is produced on a microscope coupled with an image analysis system: • The thickness of the epidermis (living cell layers) is measured on the histological sections after the HE coloring, • The synthesis of the filaggrin is proportional to the intensity of the fluorescence (green color) that is present in the reconstructed epidermis."}, "[2]": {"system": "Kruppel-like factor 4 (KLF4)", "assay": "Expression of RNAm by quantitative PCR in human keratinocytes of aged donors: KLF4", "details": "10^−7M, 48 hours", "description": "(§2) The object of this study is to evaluate the effect of a Cichorium intybus root hydrolyzate comprising oligofructosans (Example 1) on its capacity to modulate the expression of the RNAm coding for epidermal differentiation proteins: • Kruppel-like factor 4 (KLF4): transcription factor involved in the terminal differentiation of keratinocytes, • Cytokeratin 1 (CK1): components of intermediate keratin filaments, • Involucrin: protein of the cornified envelope, • Cystatin E/M: Inhibitor of lysosomal protease cysteines that are involved in the differentiation of keratinocytes and desquamation. • Kallikrein 5 (KLK5 or SCTE): stratum corneum tryptic enzyme involved in desquamation.\n(§3) The study was done by quantitative PCR on normal human keratinocytes obtained from aged donors (age of greater than 60 years), according to the operating procedure described below.\n(§4) On D0, the human keratinocytes of aged donors are inoculated and incubated at 37° C.\n(§5) The cells are then incubated for 48 hours at 37° C.\n(§6) On D4, the cells are recovered, and the total RNA are extracted. The RNA are reverse-transcripts, and the complementary DNA that are obtained are analyzed by quantitative PCR (quantitative polymerase chain reaction).\n(§7) The quantification of the incorporation of fluorescence is measured continuously using a thermal cycler, and the relative quantification is carried out using software."}, "Involucrin": {"system": "Involucrin", "assay": "Expression of RNAm by quantitative PCR in normal human keratinocytes: involucrin", "details": "aged human keratinocytes; 10^−7M; 48 hours", "description": "(§8) The study consists in comparing the effect of these different fractions on the expression of the involucrin and the KLK5 by quantitative PCR on normal human keratinocytes, with the result obtained for the active ingredient according to the invention at 1%. The test protocol is the one described in Item II. […]\n(§9) The study was done by quantitative PCR on normal human keratinocytes obtained from aged donors (age of greater than 60 years), according to the operating procedure described below. […]\nas §6, §7"}, "filaggrin": {"system": "filaggrin", "assay": "Synthesis of filaggrin in reconstructed epidermis from aged human keratinocytes (immunohistological marking)", "description": "as §1"}, "[3]": {"system": "Kallikrein 5 (KLK5 or SCTE)", "assay": "Expression of RNAm by quantitative PCR in normal human keratinocytes: KLK5", "details": "aged human keratinocytes; 10^−7M; 48 hours", "description": "as §8, §9, §6, §7"}, "Cystatin E/M": {"system": "Cystatin E/M", "assay": "Expression of RNAm by quantitative PCR in human keratinocytes of aged donors: cystatin E/M", "details": "10^−7M, 48 hours", "description": "as §2, §3, §4, §5, §6, §7"}, "Cytokeratin 1 (CK1)": {"system": "Cytokeratin 1 (CK1)", "assay": "Expression of RNAm by quantitative PCR in human keratinocytes of aged donors: cytokeratin 1", "details": "10^−7M, 48 hours", "description": "as §2, §3, §4, §5, §6, §7"}}}
{"compound": "C=C1/C(=C\\C=C2/CCC[C@]3(C)[C@@H]([C@H](C)CCCC(C)(C)O)CC[C@@H]23)C[C@@H](O)C[C@@H]1O", "note": "[Calcitriol, calcitriol]", "values": [{"measurement": "Thickness of the Epidermis (μm)", "setting": "[1]; D12, 10^−8M", "result": 37.8, "unit": "μm"}, {"measurement": "Thickness of the Epidermis (μm)", "setting": "[1]; D19, 10^−8M", "result": "58.6 (FIG. 1c) μm"}, {"measurement": "RNAm Level/Control (%) KLF4", "setting": "[2]", "result": "+25%"}, {"measurement": "RNAm Level/Control (%) Involucrin", "setting": "Involucrin", "result": "+42%"}, {"measurement": "Synthesis of Filaggrin (×10^4 UA)", "setting": "filaggrin; D12, 10^−8M", "result": "116 ×10^4 UA"}, {"measurement": "Synthesis of Filaggrin (×10^4 UA)", "setting": "filaggrin; D19, 10^−8M", "result": "795 (FIG. 2c) ×10^4 UA"}, {"measurement": "RNAm Level/Control (%) KLK5", "setting": "[3]", "result": "+26%"}, {"measurement": "RNAm Level/Control (%) Cystatin E/M", "setting": "Cystatin E/M", "result": "+65%"}, {"measurement": "RNAm Level/Control (%) Cytokeratin 1", "setting": "Cytokeratin 1 (CK1)", "result": 0, "unit": "%"}]}
